Assay [1] concerns the target T1, PPARγ (Mus musculus, UniProt P37238).
T1 construct: expressed in transfected cells; host or cells: BHK21 (ATCC CCL10)
T1 sequence (P37238 174-475 isoform P37238-2): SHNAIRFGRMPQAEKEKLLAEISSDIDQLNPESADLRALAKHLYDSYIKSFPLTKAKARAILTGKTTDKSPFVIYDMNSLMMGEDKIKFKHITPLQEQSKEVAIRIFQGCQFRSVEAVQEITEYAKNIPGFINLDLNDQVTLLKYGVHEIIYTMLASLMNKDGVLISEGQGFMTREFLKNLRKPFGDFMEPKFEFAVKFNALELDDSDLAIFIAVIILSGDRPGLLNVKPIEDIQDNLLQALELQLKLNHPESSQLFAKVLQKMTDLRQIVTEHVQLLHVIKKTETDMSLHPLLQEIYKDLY
The assay is described as follows: Luciferase transcriptional reporter gene assay, pFA-PPARγ-LBD in BHK21 cells. The assay is classed as cell-based. The settings on record: Gal4-PPARγ-LBD luciferase reporter, 24 hours incubation. From the text:
(§1) Full-length cDNA clones for human PPARα and mouse PPARγ were obtained by RT-PCR from human adipose and mouse liver cRNA, respectively, cloned into plasmid vectors and verified by DNA sequencing. Bacterial and mammalian expression vectors were constructed to produce glutathione-s-transferase (GST) and Gal4 DNA binding domain proteins fused to the ligand binding domains (LBD) of PPARγ (aa 174 to 476) and PPARα (aa 167 to 469). To accomplish this, the portions of the cloned sequences encoding the LBDs were amplified from the full-length clones by PCR and then subcloned into the plasmid vectors. Final clones were verified by DNA sequence analysis.
(§2) Luciferase Transcriptional Reporter Gene Assays
(§3) Baby hamster kidney cells (BHK21 ATCC CCL10) were grown in DMEM medium containing 10% FBS at 37° C. in a 95%[…]:5%CO2 atmosphere. Cells were seeded in 6 well plates at a density of 10^5 Cells/well and then batch-transfected with either the pFA-PPARγ-LBD or pFA-PPARα-LBD expression plasmids plus the pFR-luc reporter plasmid and an expression plasmid encoding the secretable form of alkaline phosphatase (SEAP) as a normalization control. […] Six hours following transfection, the cells were harvested by trypsinization and seeded in 96 well plates at a density of 10^4 cells/well. After 24 hours to allow attachment of cells, the medium was removed and replaced with 100 ul of phenol red-free medium containing the test substances or control ligands (final. 0.1% DMSO). Following incubation of the cells for 24 hours with substances, 50 ul of the supernatant was recovered and analyzed for SEAP activity (Roche Molecular Biochemicals). The remainder of the supernatant was discarded, 50 ul PBS was added per well followed by one volume of Luciferase Constant-Light Reagent (Roche Molecular Biochemicals) to lyse the cells and initiate the luciferase reaction. Luminescence for both SEAP and luciferase was measured in a Packard TopCount. Luciferase activity was normalized to the SEAP control and transcriptional activation in the presence of a test substance was expressed as fold-activation over cells incubated in the absence of the substance. EC50 values were calculated using the XLfit program (ID Business Solutions Ltd. UK).
(In general: A reporter such as luciferase makes a cellular process visible.)

Assay [2] addresses T2, PPARγ (Mus musculus, UniProt P37238).
T2 construct: made in house; host or cells: E. coli BL21(pLysS)
T2 sequence (P37238 204-505): T1 sequence (P37238 174-475 isoform P37238-2)
In words: PPARγ radioligand binding assay (scintillation proximity, GST-PPARγ-LBD). The settings on record: SPA beads.
Text: Background information on the performed assays can be found in: Nichols J S et al. “Development of a scintillation proximity assay for peroxisome proliferator-activated receptor gamma ligand binding domain”, (1998) Anal. Biochem. 257:112-119.
as §1
Induction, expression, and purification of GST-LBD fusion proteins were performed in E. coli strain BL21(pLysS) cells by standard methods (Ref: Current Protocols in Molecular Biology, Wiley Press, edited by Ausubel et al.).
Radioligand Binding Assay
PPARγ receptor binding was assayed in TKE50 (50 mM Tris-HCl, pH 8, 50 mM KCl, 2 mM EDTA, 0.1 mg/ml fatty acid-free BSA and 10 mM DTT). For each 96 well reaction an 140 ng equivalent of GST-PPARγ-LBD fusion protein was bound to 10 ug SPA beads (PharmaciaAmersham) in a final volume of 50 ul by shaking. The resulting slurry was incubated for 1 h at RT and centrifuged for 2 min at 1300 g. The supernatant containing unbound protein was removed and the semidry pellet containing the receptor-coated beads was resolved in 50 ul of TKE. For radioligand binding e.g. 10000 dpm 2(S)-(2-benzoyl-phenylamino)-3-{4-[1,1-ditritio-2-(5-methyl-2-phenyl-oxazol-4-yl)-ethoxy]-phenyl}-propionic acid in 50 ul were added, the reaction incubated at RT for 1 h and scintillation proximity counting performed. All binding assays were performed in 96 well plates and the amount of bound ligand measured on a Packard TopCount using OptiPlates (Packard). Nonspecific binding was determined in the presence of 10^−4 M unlabelled compound. Dose response curves were done in triplicates within a range of concentration from 10^−10 M to 10^−4 M.
(In general: Scintillation proximity formats need no separation of bound from free tracer.)

Assay [3] has as its target T3, PPARα (Homo sapiens, UniProt Q07869).
T3 construct: expressed in transfected cells; host or cells: BHK21 (ATCC CCL10)
T3 sequence (Q07869 167-468 limits assumed): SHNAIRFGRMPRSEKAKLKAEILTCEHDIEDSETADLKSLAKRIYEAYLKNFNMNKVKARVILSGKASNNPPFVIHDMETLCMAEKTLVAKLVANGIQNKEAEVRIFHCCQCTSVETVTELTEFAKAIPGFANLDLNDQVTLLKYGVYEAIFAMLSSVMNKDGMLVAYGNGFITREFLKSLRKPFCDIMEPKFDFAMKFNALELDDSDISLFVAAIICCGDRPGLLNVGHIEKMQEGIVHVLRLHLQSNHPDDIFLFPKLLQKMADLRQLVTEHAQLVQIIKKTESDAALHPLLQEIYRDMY
The assay is described as follows: Luciferase transcriptional reporter gene assay, pFA-PPARα-LBD in BHK21 cells. The assay is classed as cell-based. As to conditions: Gal4-PPARα-LBD luciferase reporter, 24 hours incubation.
Text: Full-length cDNA clones for human PPARα and mouse PPARγ were obtained by RT-PCR from human adipose and mouse liver cRNA, respectively, cloned into plasmid vectors and verified by DNA sequencing. […] To accomplish this, the portions of the cloned sequences encoding the LBDs were amplified from the full-length clones by PCR and then subcloned into the plasmid vectors. Final clones were verified by DNA sequence analysis.
as §2, §3

SMILES strings stand for the structures.

For the molecule `COc1cccc(CN(c2ccccc2)c2ccc(OCCc3nc(-c4ccccc4)oc3C)cc2)c1C(=O)O` [Example 26, 2-methoxy-6-[({4-[2-(5-methyl-2-phenyl-oxazol-4-yl)-ethoxy]-phenyl}-phenyl-amino)-methyl]-benzoic acid], the EC50 in assay [1] worked out at 1410 nM; in assay [3], 2050 nM. The molecule further came in with an IC50 in assay [2] of 980 nM.
As for `Cc1oc(-c2ccccc2)nc1CCOc1ccc(N(Cc2c(F)cccc2C(=O)O)c2ccccc2)cc1` [Example 18, 3-fluoro-2-[({4-[2-(5-methyl-2-phenyl-oxazol-4-yl)-ethoxy]-phenyl}-phenyl-amino)-methyl]-benzoic acid], the EC50 worked out at 1980 nM in assay [1] and 10000 nM in assay [3]. The IC50 in assay [2] was found to be 240 nM.
Consider `Cc1oc(-c2ccccc2)nc1CCOc1ccc(N(Cc2ccccc2C(=O)O)c2ccc(F)cc2)cc1` [Example 12, 2-[((4-fluoro-phenyl)-{4-[2-(5-methyl-2-phenyl-oxazol-4-yl)-ethoxy]-phenyl}-amino)-methyl]-benzoic acid], for which the EC50 amounted to 2320 nM in assay [1] and 2590 nM in assay [3]. Further, the half-inhibitory concentration (IC50) in assay [2] is 1080 nM.
In the case of `CCCN(Cc1ccccc1C(=O)O)c1ccc(OCCc2nc(-c3ccccc3)oc2C)cc1` [Example 6, 2-[({4-[2-(5-methyl-2-phenyl-oxazol-4-yl)-ethoxy]-phenyl}-propyl-amino)-methyl]-benzoic acid], the results for the EC50 in assay [1] and in assay [3] were 1320 nM and 2700 nM, respectively. The molecule also registered an IC50 in assay [2] of 930 nM.

What is called EC50 is the midpoint of the concentration-response curve. Higher therefore signals lower potency in that assay. Broadly, the IC50 is the concentration that inhibits the measured activity by half. A higher IC50 goes with weaker potency.
